Results on two compounds are retold here after patent US4360509A, “Vivo radioassay process” (priority 1979, dated 1982).

The procedure of data set [1]:
The clearance of In-111 from the blood of the goats was followed after intravenous injection of In-111 in three different formulations, namely In-111-chloride, In-111-oxinate and In-111-oxinate labeled granulocytes, respectively, in order to determine the biological half life for each of these different formulations. After injection, 10 ml blood samples were taken at intervals. All blood samples were subjected to differential centrifugation in order to determine whether the radioactivity was localized in the plasma, platelets, red cell fraction or leukocytes. Platelet rich plasma (PRP) was prepared by centrifugation of heparinised blood at 200 g during 15 minutes. After sampling of the PRP (1 ml) the residue was centrifuged at 1600 g for 10 minutes. 1 ml samples were taken from the plasma layer (platelet poor plasma=PPP), from the interface between plasma and red cells (leukocytes) and from the red cell fraction. The radioactivities were determined and clearance was determined corrected for physical decay.
The clearance of In-111 from the blood of goats was followed after intravenous injection of In-111 in three different goats and formulations,namely, In-111-chloride, In-111-oxinate and In-111-oxinate labeled granulocytes, respectively, in order to determine the biological half-life of In-111.
The clearance of In-111 in a goat which was injected with In-111-oxinate labeled granulocytes was also studied.

Data set [2] is described as follows: Tissue distribution of In-111 in goats with bacterial abscesses (radioactivity per gram of tissue, scintillation counter). As to conditions: goat. The protocol: The distribution of In-111 was determined in the different organs and tissues of three goats. One goat was injected with In-111-oxinate labeled autologous granulocytes, one with plain In-111-oxinate and one with plain In-111-chloride. The injections with the isotope formulations took place 2 days before the animals were sacrificed and dissected. Pieces of abscess, organs and tissues were sampled, weighed and the radioactivity was measured in a scintillation counter. The radioactivities per gram of tissue were determined.
The tissue distribution of In-111 in the goat was determined to show the distribution of radioactivity among the organs.
In order to illustrate the process of the invention a goat with adjoining bacterial abscesses of 2 months and three days old was injected with In-111-oxinate (ca. 1 mCi). The goat was imaged by gamma camera the next day. […] The goat was sacrificed and the distribution of radioactivity between the different tissues and organs determined.
The goat that was intravenously injected with In-111-chloride was dissected two days after the injection, and the distribution of radioactivity among the different tissues and organs determined.

The next data set has as its system blood cells. Description: Washing of blood cells with PBS (binding of radioactivity to blood cells after injection). As to conditions: goat blood cells.
A further data set deals with bacterial abscesses. The data set is described as follows: Gamma camera scintigraphy of bacterial abscesses in goats. It counts as in vivo. The following applies: goat; for abscess visibility by gamma camera, adjoining bacterial abscesses of 2 months and three days old: about 1 mCi, imaged the next day. On the procedure: Bacterial abscesses were also evoked in goats in accordance with the following procedure: 4 Droppings (faeces) of goats were stirred in 10 ml phosphate-buffered, saline solution (pH 7.2), emulsified in 10 ml mineral oil (Freund's complete adjuvant), and injected subcutaneously into four goats (2.5 ml per goat) at the left flank of the abdomen. Within a day the goats developed fever (temperature rose from 39.3° to over 40° C.) and a firm abscess with a diameter of about 10 cm. appeared.
In order to prepare granulocyte suspensions blood was sampled from a goat via the neck vein, and anticoagulated by the addition of heparin. The granulocytes were purified by a known sedimentation technique. The separation fluid consisted of: 10 Parts of Isopaque (sodium metrizoate) (32.8%) mixed with 24 parts Ficoll (Pharmacia) 8% (in H2 O). The density was: 1.077 g/ml. Equal parts of anticoagulated blood and 0.9% NaCl were mixed and 20 ml of the mixture was layered over 10 ml of Isopaque-Ficoll in a centrifuge tube. The mixture was centrifuged at 1000 g for 15 minutes. After centrifugation the mononuclear cells (monocytes and lymphocytes) were found as a narrow band at the interface between the plasma layer and the separation fluid. The layer above the erythrocyte sediment, also containing granulocytes, was removed down to 1 to 2 mm above the erythrocyte meniscus. The erythrocyte layer was mixed with a 3 to 5 fold volume of phosphate-buffered saline solution and centrifuged for 7 minutes at 1200 g. The supernatant was pipetted-off down to the erythrocyte meniscus. The erythrocytes were lysed by addition of 30 ml 155 mM NH4 Cl solution (also containing 10 mM KHCO3 0.1 mM EDTA) pH 7.4, mixing and 15 minutes storage at 4° C. After centrifugation (400 g) the granulocytes were resuspended in NH4 Cl solution (15 ml) 0.5% albumin and stored 15 minutes at 4° C. After microscopic control the cells were washed in PBS containing 0.5% albumin and were consecutively suspended in 5 ml PBS containing 0.5% albumin. In that condition the cells are ready for indium-111-oxinate labeling.
Indium-111-oxinate labeled granulocytes were made by the Thakur procedure. In this preparation 2×50 ml conical centrifuge tubes are sterilized at 120° C. for 2 hours. In-111 Cl3 (Byk-Mallinckrodt CIL B.V.) 0.1 M HCl solution (5 mCi/ml) is used. 1 ml H2 O is added for injection, as are 50 μl oxine (BDH or Merck) solution (1 mg/ml in ethanol), and 200 μl acetate buffer 0.3 M pH 5.6 after a short wait of about a minute. The In-111-oxinate is extracted into about 2 ml CHCl3, and is evaporated to dryness by heating in a water bath. The material is dissolved in 100 μl absolute ethanol and again evaporated and dissolved in 50 μl absolute ethanol. […]

Where [3] appears, read: intravenous, two days after the injection.

“Also recorded” adds a separate entry of the source.

Turning to `[Cl][111In]([Cl])[Cl]` [In-111-chloride], in data set [1] (goat, intravenous), the “clearance of indium from blood, four days” value is given as “almost disappeared in four days” and the “clearance of indium from blood, level within two days” value is on record as “decline to a very low level of radioactivity within two days”. In data set [2], the “accumulation of In-111 in the cell fraction of the blood (tissue distribution study)” value was “only a small amount of In-111 accumulated in the blood cells”; the “radioactivity in pus of the old and new abscesses” value is recorded as “hardly any radioactivity”. Further, in data set [2] (2 days after injection), the “radioactivity in the kidney” value is reported as “strongly labeled” and the “radioactivity of inflamed lymph node relative to a non-inflamed one” value is listed as “three”. Besides, in data set [2] (setting [3]), the “accumulation of In-111 in fat, urine and gall” value is listed as “no significant accumulation of In-111”; the “accumulation of radioactivity in intraperitoneally penetrated part of the abscess” value is listed as “slightly higher accumulation of radioactivity, but the accumulation was less than in the old abscess in the In-111-oxinate study”; the “accumulation of radioactivity in the spleen and liver” value is recorded as “moderate accumulations of radioactivity”; the “distribution of blood radioactivity between plasma and cells” value was “Most of the radioactivity was in the plasma, not in the cells”. Moreover, in data set [2] (setting [3]), the “labeling of the blood” value was “very moderately labeled”; the “radioactivity in tissue of old and new abscesses” value is “moderate radioactivity, somewhat more than lymph node and muscle, far less than ovarium, uterus, lung and kidney”. Besides, the “binding of radioactivity to blood cells on washing with PBS” value with blood cells is reported as “could be easily washed out; also recorded: could be washed out by PBS”. Moreover, in the data set on bacterial abscesses, the “abscess visibility by gamma camera, adjoining bacterial abscesses of 2 months and three days old” value is listed as “well-visible spot”. Also, the “abscess visibility by gamma camera, bacterial abscesses of 2 months and three days old, subcutaneous injection” value in the data set on bacterial abscesses (ca. 1 mCi, accidental subcutaneous injection, twenty-four hours later) was “distinct, well-visible spot”. Moreover, in the data set with bacterial abscesses (ca. 1 mCi, subcutaneous), the “spread of radioactivity after subcutaneous injection” value is “spread via the peripheral vascular system, not via the neck vein to the heart and the lungs”.
For the compound `[111In+3].[O-]c1cccc2cccnc12.[O-]c1cccc2cccnc12.[O-]c1cccc2cccnc12` [In-111-oxinate], in data set [1] (another goat), the “course of radioactivity in blood after injection (another goat)” value is “gradual decrease of radioactivity immediately after the goat was injected” and the “preference of the cells for the agent (another experiment in another goat)” value is reported as “strong preference of the cells”. Besides, the “preference of indium-111 for white cells” value in data set [1] (another goat, sample had about an equal amount of plasma) was “no preference of indium-111 for white cells”. For the same compound, in data set [1] (goat, after injection), the “time of optimal accumulation in the cell fraction of the blood” value is on record as “five”. Further, in data set [1] (goat, intravenous), the “In-111 activity level in blood after two days” value is on record as “very slow decline of the activity level”; the “In-111 level in the blood, first two days” value was “gradual increase of In-111 in the blood for two days”; the “radioactivity in the blood one week later” value was “still a significant amount of radioactivity in the blood”. For the same compound, in data set [1] (goat, intravenous, clearance study), the “preference of In-111 for the cell fraction of the blood” value is “clear preference of In-111 to accumulate in the cell fraction of the blood”. In data set [2], the “accumulation of In-111 in the cell fraction of the blood (tissue distribution study)” value was “strong accumulation of In-111 in the cell fraction of the blood, almost as much as the radioactivity per gram of tissue of the spleen”; the “accumulation of radioactivity in fat, muscle, marrow from the femur, gall, faeces, pancreas and urine” value was “no significant accumulation of radioactivity”; the “accumulation of radioactivity in heart muscle” value is given as “moderate accumulation of In-111”; the “radioactivity in pus of the old and new abscesses” value was “little radioactivity”. The “accumulation of In-111 in tissue of the old abscess” value in data set [2] (2 months old abscess) was “high accumulation of In-111, similar to the kidney and ovarium”. In addition, the “radioactivity of inflamed lymph node relative to a non-inflamed one” value in data set [2] (2 days after injection) was “two”. In addition, the “radioactivity accumulation in tissue of the new abscess” value in data set [2] (three days old abscess) is “moderate radioactivity accumulation more than, for example, the lymph node and muscles, but far less than ovarium, uterus, lung, kidney, spleen and blood”. For the same compound, the “binding of radioactivity to blood cells on washing with PBS” value with blood cells is “firmly bound”. Also, the “abscess visibility by gamma camera, adjoining bacterial abscesses of 2 months and three days old” value with bacterial abscesses was “clear spot”.
